Experimental data: PubChem BioAssay AID1996
In brackets after ≈: the same amount, converted by molar mass.

Conditions: buffer; pH 7.4; 200.0 µM

Row | Compound | solubility kinetic [µg/mL]
1 | COc1cc(CC(=O)Nc2cccc(S(=O)(=O)N(C)c3ccccc3)c2)cc(OC)c1OC | 14.1 (≈ 30 µM)
2 | Cc1cccc(C)c1NC(=O)CSc1n[nH]c(=O)n1C1CC1 | > 47.8
3 | CCC(Oc1ccccc1)C(=O)NC1CCCCCC1 (centres undefined) | 28.3 (≈ 103 µM)
4 | CCN(CC)C(=O)COc1ccc2c(-c3ccccc3)cc(=O)oc2c1 | 40.7 (≈ 116 µM)
5 | CCOC(=O)c1c(N)c2cc([N+](=O)[O-])cnc2n1C | 1.9 (≈ 7.19 µM)
6 | CCN(C(=O)c1ccco1)c1nnc(-c2cccnc2)s1 | > 45.1
7 | CSCCC1COC(c2cccs2)=N1 (centres undefined) | 29 (≈ 128 µM)
8 | CCCCOc1ccc(C(=O)NCC(=O)NNC(=O)c2ccco2)cc1 | > 53.9
9 | CC(C)(C)c1cc(CCC(=O)Nc2ccncc2)cc(C(C)(C)C)c1O | 40.4 (≈ 114 µM)
10 | CC1CC(C)CN(C(=O)CNS(=O)(=O)c2cccs2)C1 (centres undefined) | 17.6 (≈ 55.6 µM)
11 | Cc1csc(=O)n1CCC(=O)OC(C)C(=O)NCc1ccccc1 (centres undefined) | > 52.3
12 | CCOc1cc(C2NC(=O)c3ccccc3O2)ccc1OC (centres undefined) | 8.6 (≈ 28.7 µM)
13 | O=C(c1c[nH]c2ccccc12)C(Cl)c1ccccc1 (centres undefined) | 2.1 (≈ 7.79 µM)
14 | N#Cc1c(N)n(-c2ccc(C(=O)O)cc2)c2nc3ccccc3nc12 | 28.5 (≈ 86.5 µM)
15 | CCOC(=O)Nc1cccc(OCC(=O)Nc2ccc3c(c2)CCC3)c1 | 5.2 (≈ 14.7 µM)
16 | CC(=O)NC(CC(=O)OCC(=O)c1cc(C)ccc1C)c1ccccc1 (centres undefined) | > 53
17 | O=C(COC(=O)c1ccc2ccccc2n1)c1ccc(F)cc1 | 16.8 (≈ 54.3 µM)
18 | CCN(CC)CCCNc1ncnc2ccccc12.Cl | 42.3
19 | O=C(Nc1ccc(N2CCOCC2)cc1N1CCOCC1)c1ccc(F)cc1 | 42.2 (≈ 109 µM)

Row | Compound | solubility kinetic [µg/mL]
20 | Cn1c(N)c(C(=O)COC(=O)c2ccc(Cl)nc2)c(=O)n(C)c1=O | 46.2 (≈ 131 µM)
21 | S=c1nc(-c2ccc(Br)cc2)[nH]c2ccccc12 | 0.7 (≈ 2.21 µM)
22 | CC1CC(C)CN(C(=O)CSc2ncnc3sccc23)C1 (centres undefined) | 17.1 (≈ 53.2 µM)
23 | O=C(Nc1ccc2ccccc2c1)c1cccc([N+](=O)[O-])c1 | < 0.3
24 | CC(OC(=O)c1cc[n+]([O-])cc1)C(=O)NCc1ccccc1 (centres undefined) | > 45
25 | Cc1onc(-c2ccccc2)c1-c1csc(COc2ccccc2)n1 | 2.2 (≈ 6.31 µM)
26 | C=CCn1cc(/C=C2/NC(=O)NC2=O)c2ccccc21 | 1 (≈ 3.74 µM)
27 | O=C(O)CCN1C(=O)c2ccc(Oc3ccc([N+](=O)[O-])cc3)cc2C1=O | 52.9 (≈ 148 µM)
28 | CCC(CC)C(=O)N1CC(=O)Nc2ccc(F)cc2C1c1ccccc1 (centres undefined) | 51.9 (≈ 146 µM)
29 | CCNC(=O)c1ccccc1-c1nc(-c2ccccc2)no1 | 35.4 (≈ 121 µM)
30 | CC(NCc1ccccc1Cl)C(=O)Nc1ccc(C#N)cc1 (centres undefined) | 44.5 (≈ 142 µM)
31 | C=CCNC(=O)CN1CCC(c2nc3cc(C)c(C)cc3[nH]2)CC1 | > 49
32 | Cc1cnc(NC(=O)Cc2ccccc2Cl)s1 | 1.1 (≈ 4.12 µM)
33 | CC(C)(C)c1ccc(NC(=O)CON=C(N)c2ccccc2)cc1 | 3.8 (≈ 11.7 µM)
34 | CC(C)c1ccc(OCC(=O)NC(C)c2ccccc2)cc1 (centres undefined) | 16.5 (≈ 55.5 µM)
35 | CCCc1cc(=O)[nH]c(SCC(=O)Nc2cc(S(=O)(=O)N3CCOCC3)ccc2Cl)n1 | 63.8 (≈ 131 µM)
36 | CSc1nc(Nc2ccc(Cl)cc2)c(C#N)c(=O)[nH]1 | 7.8 (≈ 26.6 µM)
37 | Fc1cccc(CNc2ncnc3cc(Cl)ccc23)c1F | 3.8 (≈ 12.4 µM)

Other lines, results leading:

Row | solubility kinetic [µg/mL] | Compound
38 | 2.8 (≈ 9.26 µM) | Cc1cccc(NC(=S)NCCc2ccc(F)cc2)c1C
39 | > 40.3 | COc1ccc(C(=O)CNC2=NCCC2)cc1.Cl
40 | 0.9 (≈ 3.38 µM) | COc1ccccc1/C=N/OCc1ccc(C#N)cc1
41 | 13.2 (≈ 48.1 µM) | Cc1nc2ccc(NC(=O)C3CCCCC3)cc2s1
42 | > 48.2 | CCC1CCCCN1C(=S)NC(=O)c1cccc([N+](=O)[O-])c1 (centres undefined)
43 | > 58.9 | CS(=O)(=O)Cc1ccc(C(=O)N2CCN(C(=O)c3cccs3)CC2)cc1
44 | 7.4 (≈ 35.7 µM) | Cc1ccc(CN2CCSCC2)cc1
45 | 6.5 (≈ 20.8 µM) | O=C(CN1C(=O)c2ccccc2C1=O)NCc1ccc(F)cc1
46 | 42.4 (≈ 126 µM) | N#Cc1ccc(-c2ccc(OCC(O)CN3CCCCC3)cc2)cc1 (centres undefined)
47 | 30.8 (≈ 127 µM) | Cc1ccc(-c2[nH]c(=S)[nH]c(=O)c2C#N)cc1
48 | > 48.5 | COC(=O)c1ccc(NC(=S)N2CCN(CCO)CC2)cc1
49 | 1.1 (≈ 3.13 µM) | CCN1C(=O)/C(=C\N2CCN(C(=O)c3ccco3)CC2)SC1=S
50 | 52.8 (≈ 142 µM) | Cc1ccc(C)c(N(CC(=O)N2CCc3ccccc3C2)S(C)(=O)=O)c1
51 | > 44.5 | Cn1cc(CC(=O)NCc2ccc(F)cc2)c2ccccc21
52 | 13 (≈ 39.6 µM) | COc1ccc(C(=O)CN2CCN(c3ccc(F)cc3)CC2)cc1
53 | 41.1 (≈ 132 µM) | COc1cccc(OC)c1C(=O)Nc1cccc2c1CCCC2
54 | 1.4 (≈ 4.15 µM) | CC(=O)c1ccc(N2CCN(C(=O)Nc3ccc(C)cc3)CC2)cc1
55 | 0.8 (≈ 2.55 µM) | COc1ccc(C(C)NC(=O)C23CC4CC(CC(C4)C2)C3)cc1 (centres undefined)
56 | 22.8 (≈ 48.9 µM) | CN(Cc1ccc(OC(F)F)cc1)C(=O)/C=C/c1ccc(S(=O)(=O)N2CCOCC2)cc1
57 | > 46.4 | CCOc1ccc(N2C(=O)CC(SCC(=O)O)C2=O)cc1 (centres undefined)
58 | 4.4 (≈ 13 µM) | Cc1ccc(C(=O)NCC(=O)N2CCN(c3ccccc3)CC2)cc1
59 | > 46.3 | CC(=O)Nc1ccc(S(=O)(=O)NC2CC3CCC2C3)cc1 (centres undefined)
